Tests used:
Assay in all cases: CYP51 reconstitution assay
Assay type in all cases: biochemical
CaCYP51 D278N = biological target: T1, CaCYP51 D278N (Candida albicans, UniProt P10613, D278N); conditions: 0.25 h, 4 μM triazole, % of activity without triazole, read-out: Residual CYP51 activity (%) ± SD
T1 construct: made in house; host or cells: E. coli DH5α (pCWori+)
Experimental: (§1) Azole antifungal agents were added in 2.5 μl dimethyl sulfoxide, followed by 10 min of incubation at 37°C prior to assay initiation with 4 mM β-NADPH-Na4. The samples were then shaken for 15 min at 37°C. Sterol metabolites were recovered by extraction with ethyl acetate, followed by derivatization with 0.1 ml N,O-bis(trimethylsilyl)trifluoroacetamide (BSTFA)–trimethylchlorosilane (TMCS) (99:1) and 0.3 ml anhydrous pyridine (2 h at 80°C), prior to analysis by gas chromatography-mass spectrometry (GC-MS) ([52]). IC50 determinations were performed in duplicate.

CaCYP51 D278N+G464S = biological target: T2, CaCYP51 D278N+G464S (Candida albicans, UniProt P10613, D278N/G464S); conditions: 0.25 h, 4 μM triazole, % of activity without triazole, read-out: Residual CYP51 activity (%) ± SD
T2 construct: made in house; host or cells: E. coli DH5α (pCWori+)
Experimental: as §1

CaCYP51 F126V = biological target: T3, CaCYP51 F126V (Candida albicans, UniProt P10613, F126V); conditions: 0.25 h, 4 μM triazole, % of activity without triazole, read-out: Residual CYP51 activity (%) ± SD
T3 construct: made in house; host or cells: E. coli DH5α (pCWori+)
Experimental: as §1

CaCYP51 F145L = biological target: T4, CaCYP51 F145L (Candida albicans, UniProt P10613, F145L); conditions: 0.25 h, 4 μM triazole, % of activity without triazole, read-out: Residual CYP51 activity (%) ± SD
T4 construct: made in house; host or cells: E. coli DH5α (pCWori+)
Experimental: as §1

CaCYP51 F449Y = biological target: T5, CaCYP51 F449Y (Candida albicans, UniProt P10613, F449Y); conditions: 0.25 h, 4 μM triazole, % of activity without triazole, read-out: Residual CYP51 activity (%) ± SD
T5 construct: made in house; host or cells: E. coli DH5α (pCWori+)
Experimental: as §1

CaCYP51 G307S = biological target: T6, CaCYP51 G307S (Candida albicans, UniProt P10613, G307S); conditions: 0.25 h, 4 μM triazole, % of activity without triazole, read-out: Residual CYP51 activity (%) ± SD
T6 construct: made in house; host or cells: E. coli DH5α (pCWori+)
Experimental: as §1

CaCYP51 G307S+G450E = biological target: T7, CaCYP51 G307S+G450E (Candida albicans, UniProt P10613, G307S/G450E); conditions: 0.25 h, 4 μM triazole, % of activity without triazole, read-out: Residual CYP51 activity (%) ± SD
T7 construct: made in house; host or cells: E. coli DH5α (pCWori+)
Experimental: as §1

CaCYP51 G448E = biological target: T8, CaCYP51 G448E (Candida albicans, UniProt P10613, G448E); conditions: 0.25 h, 4 μM triazole, % of activity without triazole, read-out: Residual CYP51 activity (%) ± SD
T8 construct: made in house; host or cells: E. coli DH5α (pCWori+)
Experimental: as §1

CaCYP51 G450E = biological target: T9, CaCYP51 G450E (Candida albicans, UniProt P10613, G450E); conditions: 0.25 h, 4 μM triazole, % of activity without triazole, read-out: Residual CYP51 activity (%) ± SD
T9 construct: made in house; host or cells: E. coli DH5α (pCWori+)
Experimental: as §1

CaCYP51 G464S = biological target: T10, CaCYP51 G464S (Candida albicans, UniProt P10613, G464S); conditions: 0.25 h, 4 μM triazole, % of activity without triazole, read-out: Residual CYP51 activity (%) ± SD
T10 construct: made in house; host or cells: E. coli DH5α (pCWori+)
Experimental: as §1

CaCYP51 I471T = biological target: T11, CaCYP51 I471T (Candida albicans, UniProt P10613, I471T); conditions: 0.25 h, 4 μM triazole, % of activity without triazole, read-out: Residual CYP51 activity (%) ± SD
T11 construct: made in house; host or cells: E. coli DH5α (pCWori+)
Experimental: as §1

CaCYP51 K143R = biological target: T12, CaCYP51 K143R (Candida albicans, UniProt P10613, K143R); conditions: 0.25 h, 4 μM triazole, % of activity without triazole, read-out: Residual CYP51 activity (%) ± SD
T12 construct: made in house; host or cells: E. coli DH5α (pCWori+)
Experimental: as §1

CaCYP51 P230L = biological target: T13, CaCYP51 P230L (Candida albicans, UniProt P10613, P230L); conditions: 0.25 h, 4 μM triazole, % of activity without triazole, read-out: Residual CYP51 activity (%) ± SD
T13 construct: made in house; host or cells: E. coli DH5α (pCWori+)
Experimental: as §1

CaCYP51 Q474K = biological target: T14, CaCYP51 Q474K (Candida albicans, UniProt P10613, Q474K); conditions: 0.25 h, 4 μM triazole, % of activity without triazole, read-out: Residual CYP51 activity (%) ± SD
T14 construct: made in house; host or cells: E. coli DH5α (pCWori+)
Experimental: as §1

CaCYP51 R467K = biological target: T15, CaCYP51 R467K (Candida albicans, UniProt P10613, R467K); conditions: 0.25 h, 4 μM triazole, % of activity without triazole, read-out: Residual CYP51 activity (%) ± SD
T15 construct: made in house; host or cells: E. coli DH5α (pCWori+)
Experimental: as §1

CaCYP51 S279F = biological target: T16, CaCYP51 S279F (Candida albicans, UniProt P10613, S279F); conditions: 0.25 h, 4 μM triazole, % of activity without triazole, read-out: Residual CYP51 activity (%) ± SD
T16 construct: made in house; host or cells: E. coli DH5α (pCWori+)
Experimental: as §1

CaCYP51 S405F = biological target: T17, CaCYP51 S405F (Candida albicans, UniProt P10613, S405F); conditions: 0.25 h, 4 μM triazole, % of activity without triazole, read-out: Residual CYP51 activity (%) ± SD
T17 construct: made in house; host or cells: E. coli DH5α (pCWori+)
Experimental: as §1

CaCYP51 V456I = biological target: T18, CaCYP51 V456I (Candida albicans, UniProt P10613, V456I); conditions: 0.25 h, 4 μM triazole, % of activity without triazole, read-out: Residual CYP51 activity (%) ± SD
T18 construct: made in house; host or cells: E. coli DH5α (pCWori+)
Experimental: as §1

CaCYP51 V488I = biological target: T19, CaCYP51 V488I (Candida albicans, UniProt P10613, V488I); conditions: 0.25 h, 4 μM triazole, % of activity without triazole, read-out: Residual CYP51 activity (%) ± SD
T19 construct: made in house; host or cells: E. coli DH5α (pCWori+)
Experimental: as §1

CaCYP51 Wild type = biological target: T20, CaCYP51 Wild type (Candida albicans, UniProt P10613); conditions: 0.25 h; Wild type; 4 μM triazole; % of activity without triazole; read-out: Residual CYP51 activity (%) ± SD
T20 construct: made in house; host or cells: E. coli DH5α (pCWori+)
Experimental: as §1

CaCYP51 Y118A = biological target: T21, CaCYP51 Y118A (Candida albicans, UniProt P10613, Y118A); conditions: 0.25 h, 4 μM triazole, % of activity without triazole, read-out: Residual CYP51 activity (%) ± SD
T21 construct: made in house; host or cells: E. coli DH5α (pCWori+)
Experimental: as §1

CaCYP51 Y132F = biological target: T22, CaCYP51 Y132F (Candida albicans, UniProt P10613, Y132F); conditions: 0.25 h, 4 μM triazole, % of activity without triazole, read-out: Residual CYP51 activity (%) ± SD
T22 construct: made in house; host or cells: E. coli DH5α (pCWori+)
Experimental: as §1

CaCYP51 Y132H = biological target: T23, CaCYP51 Y132H (Candida albicans, UniProt P10613, Y132H); conditions: 0.25 h, 4 μM triazole, % of activity without triazole, read-out: Residual CYP51 activity (%) ± SD
T23 construct: made in house; host or cells: E. coli DH5α (pCWori+)
Experimental: as §1

CaCYP51 Y132H+K143R = biological target: T24, CaCYP51 Y132H+K143R (Candida albicans, UniProt P10613, K143R/Y132H); conditions: 0.25 h, 4 μM triazole, % of activity without triazole, read-out: Residual CYP51 activity (%) ± SD
T24 construct: made in house; host or cells: E. coli DH5α (pCWori+)
Experimental: as §1

CaCYP51 Y257H = biological target: T25, CaCYP51 Y257H (Candida albicans, UniProt P10613, Y257H); conditions: 0.25 h, 4 μM triazole, % of activity without triazole, read-out: Residual CYP51 activity (%) ± SD
T25 construct: made in house; host or cells: E. coli DH5α (pCWori+)
Experimental: as §1

CaCYP51 Y447H = biological target: T26, CaCYP51 Y447H (Candida albicans, UniProt P10613, Y447H); conditions: 0.25 h, 4 μM triazole, % of activity without triazole, read-out: Residual CYP51 activity (%) ± SD
T26 construct: made in house; host or cells: E. coli DH5α (pCWori+)
Experimental: as §1

T23 sequence (P10613 whole entry, looked up, stated change not applied): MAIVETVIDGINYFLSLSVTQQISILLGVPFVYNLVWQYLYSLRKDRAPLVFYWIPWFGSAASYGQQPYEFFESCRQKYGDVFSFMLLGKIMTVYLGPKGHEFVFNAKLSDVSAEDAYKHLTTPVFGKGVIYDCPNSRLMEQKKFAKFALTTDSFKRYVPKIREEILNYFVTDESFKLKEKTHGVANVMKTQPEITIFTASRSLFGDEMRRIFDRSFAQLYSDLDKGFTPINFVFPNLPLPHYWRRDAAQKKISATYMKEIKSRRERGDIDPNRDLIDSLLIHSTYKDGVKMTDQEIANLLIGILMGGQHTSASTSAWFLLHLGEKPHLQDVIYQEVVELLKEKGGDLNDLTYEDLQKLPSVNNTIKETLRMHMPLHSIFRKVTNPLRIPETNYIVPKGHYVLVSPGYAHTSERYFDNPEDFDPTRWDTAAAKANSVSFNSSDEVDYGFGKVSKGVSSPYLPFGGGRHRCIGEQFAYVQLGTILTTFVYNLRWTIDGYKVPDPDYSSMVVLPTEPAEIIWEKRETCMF
T12 sequence (P10613 whole entry, looked up, stated change not applied): as above
T7 sequence (P10613 whole entry, looked up, stated change not applied): as above
T4 sequence (P10613 whole entry, looked up, stated change not applied): as above
T25 sequence (P10613 whole entry, looked up, stated change not applied): as above
T10 sequence (P10613 whole entry, looked up, stated change not applied): as above
T20 sequence (P10613 whole entry, looked up, natural form): as the sequence (P10613 whole entry, looked up, stated change not applied) above
T26 sequence (P10613 whole entry, looked up, stated change not applied): as above
T9 sequence (P10613 whole entry, looked up, stated change not applied): as above

Work on `C[C@@H](c1ncncc1F)[C@](O)(Cn1cncn1)c1ccc(F)cc1F` [Voriconazole, voriconazole] yielded a remaining activity at 4 µM (CaCYP51 D278N) of 1.34 ± 0.05%, a remaining activity at 4 µM (CaCYP51 D278N+G464S) of 4.79 ± 0.11% and a remaining activity at 4 µM (CaCYP51 F126V) of 0.19 ± 0.06%. The remaining activity at 4 µM (CaCYP51 F145L) was 0.37 ± 0.11%, the remaining activity at 4 µM (CaCYP51 F449Y) was 0.56 ± 0.12% and the remaining activity at 4 µM (CaCYP51 G307S) was 0.41 ± 0.04%. For the same compound, the remaining activity at 4 µM (CaCYP51 G307S+G450E) was 0.41 ± 0.1%, the remaining activity at 4 µM (CaCYP51 G448E) was 1.89 ± 0.61% and the remaining activity at 4 µM (CaCYP51 G450E) was 3.5 ± 0.17%. For the same compound, the remaining activity at 4 µM (CaCYP51 G464S) was 0.1 ± 0.01%, the remaining activity at 4 µM (CaCYP51 I471T) was 0.92 ± 0.05% and the remaining activity at 4 µM (CaCYP51 K143R) was 3.12 ± 0.27%. It also gave a remaining activity at 4 µM (CaCYP51 P230L) of 0.13 ± 0.12%, a remaining activity at 4 µM (CaCYP51 Q474K) of 0.34 ± 0.04% and a remaining activity at 4 µM (CaCYP51 R467K) of 0.52 ± 0.18%. The remaining activity at 4 µM (CaCYP51 S279F) was 6.15 ± 0.66%, the remaining activity at 4 µM (CaCYP51 S405F) was 1.94 ± 0.12% and the remaining activity at 4 µM (CaCYP51 V456I) was 0.79 ± 0.07%. It also gave a remaining activity at 4 µM (CaCYP51 V488I) of 0.13 ± 0.08%, a remaining activity at 4 µM (CaCYP51 Wild type) of 0.11 ± 0.01% and a remaining activity at 4 µM (CaCYP51 Y118A) of 0.28 ± 0.04%. The remaining activity at 4 µM (CaCYP51 Y132F) was 1.09 ± 0.05%, the remaining activity at 4 µM (CaCYP51 Y132H) was 0.33 ± 0.19% and the remaining activity at 4 µM (CaCYP51 Y132H+K143R) was 39.6 ± 8.63%. The remaining activity at 4 µM (CaCYP51 Y257H) was 0.63 ± 0.27% and the remaining activity at 4 µM (CaCYP51 Y447H) was 2.07 ± 1.04%.
